Where a name gives a salt, the structure may show the parent alone.
The molecules below were run against T1, GPR40 (Homo sapiens, UniProt O14842) (assay: GPR40 SAR Primary Assay (Elk-1/Gal4-luc+ reporter, luciferase activity)). Details: stable GPR40 Elk-1/Gal4-luc+ CHO cell line, 5 hours incubation.
T1 construct: expressed in transfected cells
Format: cell-based
Procedure: An existing stable GPR40 Elk-1/Gal4-luc^+ CHO cell line generated by electroporation and functional cloning was used. Cells were maintained in a humidified incubator at 37° C./5% CO2 in complete media containing DMEM/F12 (Gibco, #11039-021), 5% FBS (Gibco, #16140-071) and 1% Glutamine (Gibco, #25030-081). Cell maintenance passages were made at 1:40 dilution every 3-4 days. Forty eight hours prior to assay, 15e6 cells were added to 200 ml of complete media then seeded into a 1200 cm^2-cell factory and returned to a humidified incubator at 37° C./5% CO2. 20 hours prior to assay, the growth media was removed and replaced with 200 ml of serum-free DMEM/F12 to quiesce background activity. At the time of assay, cells were harvested using non-enzymatic cell dissociation solution (Sigma, #C-5914), washed and counted. The 20 hour starve media was collected and used as condition media for cell assay plating. Cells were plated at a concentration of 10,000 cells/well in a total well volume of […] in black 96-well clear bottom polystyrene plates (CoStar, #3904). Test compounds were prepared as serial dilutions in 100% DMSO, then 1 ul was delivered to each well resulting in a final concentration of 1% DMSO. The plates were then returned to a humidified incubator at 37° C./5% CO2 for 5 hours. Following the incubation, the medium was replaced with 50 ul of a 1:1 mixture of SteadyGlo™ (Promega, #E2550) and dPBS containing 1 mM CaCl2 and 1 mM MgCl2. Plates were then sealed and subjected to dark adaptation at room temperature for 10 minutes. Luciferase activity was measured on a Packard TopCount™ microplate scintillation counter using 2 seconds per well count time.
Data analysis was performed using standard methods.
The Normalization Equation used was 100*(Unknown compound response−Background response)/(Agonist Max response−Background response).
The Curve Fit Function used was y=((Vmax*x^n)/(K^n+x^n))+Y2.
A percent max response and pEC50 were recorded for each compound. Although specific pEC50 values are given, these values should be considered exemplary. Those skilled in the art will appreciate the variability in performing and recording the biological activity assays that are herein described. The compounds of the present invention provide a pEC50 of at least 5.0.

T1 sequence (O14842 whole entry, the tested form may be a part): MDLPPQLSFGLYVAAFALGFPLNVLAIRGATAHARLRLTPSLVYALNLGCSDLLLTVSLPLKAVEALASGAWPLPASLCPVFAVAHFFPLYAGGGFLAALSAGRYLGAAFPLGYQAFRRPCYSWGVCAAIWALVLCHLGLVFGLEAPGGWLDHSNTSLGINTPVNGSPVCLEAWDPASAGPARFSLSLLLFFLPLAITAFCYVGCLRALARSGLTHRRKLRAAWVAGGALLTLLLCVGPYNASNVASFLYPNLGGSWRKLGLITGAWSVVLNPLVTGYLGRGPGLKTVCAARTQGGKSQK

| SMILES | EC50 [nM] |
| --- | --- |
| Nc1ccc(Oc2cccc(CNc3ccc([C@H]4C[C@@H]4C(=O)O)cc3)c2)cc1 (racemic) [Example 24, Racemic-(trans)-2-{4-[({3-[(4-aminophenyl)oxy]phenyl}methyl)amino]phenyl}cyclopropanecarboxylic Acid Trifluoroacetate] | 200 |
| NC(=O)C1CC1c1ccc(NCc2ccc(-c3ccccc3)cc2)cc1 (racemic) [Example 35, Racemic-(trans)-2-{4-[(4-biphenylmethyl)amino]phenyl}cyclopropanecarboxamide] | 20 |
| NC(=O)[C@@H]1C[C@H]1c1ccc(NCc2ccc(-c3ccccn3)cc2)cc1 (racemic) [Example 36, Racemic-(trans)-2-[4-({[4-(2-pyridinyl)phenyl]methyl}amino)phenyl]cyclopropanecarboxamide] | 251 |
| Cc1nc(-c2ccc(C(F)(F)F)cc2)sc1CNc1ccc([C@@H]2C[C@H]2C(=O)NCc2ccncc2)cc1 (racemic) [Example 37, Racemic-(trans)-2-{4-[({4-methyl-2-[4-(trifluoromethyl)phenyl]-1,3-thiazol-5-yl}methyl)amino]phenyl}-N-(4-pyridinylmethyl)cyclopropanecarboxamide] | 10 |
| Cc1nc(-c2ccc(C(F)(F)F)cc2)sc1CNc1ccc([C@@H]2C[C@H]2C(N)=O)cc1 (racemic) [Example 43, Racemic-(trans)-2-{4-[({4-methyl-2-[4-(trifluoromethyl)phenyl]-1,3-thiazol-5-yl}methyl)amino]phenyl}cyclopropanecarboxamide] | 20 |
| Cc1nc(-c2ccc(C(F)(F)F)cc2)sc1CNc1ccc([C@@H]2C[C@H]2C(=O)NC(C)C)cc1 (racemic) [Example 45, Racemic-(trans)-N-isopropyl-2-{4-[({4-methyl-2-[4-(trifluoromethyl)phenyl]-1,3-thiazol-5-yl}methyl)amino]phenyl}cyclopropanecarboxamide] | 10 |
| Cc1nc(-c2ccc(C(F)(F)F)cc2)sc1CNc1ccc([C@@H]2C[C@H]2C(=O)N(C)C)cc1 (racemic) [Example 46, Racemic-(trans)-N,N-dimethyl-2-{4-[({4-methyl-2-[4-(trifluoromethyl)phenyl]-1,3-thiazol-5-yl}methyl)amino]phenyl}cyclopropanecarboxamide] | 63.1 |
| O=C(NCc1ccncc1)[C@@H]1C[C@H]1c1ccc(NCc2cccc(Oc3ccccc3)c2)cc1 (racemic) [Example 47, Racemic-(trans)-2-[4-({[3-(phenyloxy)phenyl]methyl}amino)phenyl]-N-(4-pyridinylmethyl)cyclopropanecarboxamide] | 10 |
| COc1ccc(CNC(=O)[C@@H]2C[C@H]2c2ccc(NCc3cccc(Oc4ccccc4)c3)cc2)cc1 (racemic) [Example 48, Racemic-(trans)-N-(4-methoxybenzyl)-2-{4-[(3-phenoxybenzyl)amino]phenyl}cyclopropanecarboxamide] | 31.6 |
| O=C(NCc1ccc(C(F)(F)F)cc1)[C@@H]1C[C@H]1c1ccc(NCc2cccc(Oc3ccccc3)c2)cc1 (racemic) [Example 49, Racemic-(trans)-2-{4-[(3-phenoxybenzyl)amino]phenyl}-N-[4-(trifluoromethyl)benzyl]cyclopropanecarboxamide] | 31.6 |
| O=C(NCCN1CCOCC1)[C@@H]1C[C@H]1c1ccc(NCc2cccc(Oc3ccccc3)c2)cc1 (racemic) [Example 50, Racemic-(trans)-N-(2-morpholin-4-ylethyl)-2-{4-[(3-phenoxybenzyl)amino]phenyl}cyclopropanecarboxamide] | 251 |
| O=C(NCC(F)(F)F)[C@@H]1C[C@H]1c1ccc(NCc2cccc(Oc3ccccc3)c2)cc1 (racemic) [Example 51, Racemic-(trans)-2-{4-[(3-phenoxybenzyl)amino]phenyl}-N-(2,2,2-trifluoroethyl)cyclopropanecarboxamide] | 50.1 |
| CC(C)NC(=O)[C@@H]1C[C@H]1c1ccc(NCc2sc(-c3ccc(C(F)(F)F)cc3)nc2C(C)C)cc1 (racemic) [Example 52, Racemic-(trans)-N-isopropyl-2-{4-[({4-isopropyl-2-[4-(trifluoromethyl)phenyl]-1,3-thiazol-5-yl}methyl)amino]phenyl}cyclopropanecarboxamide] | 15.8 |
| O=C(O)[C@@H]1C[C@H]1c1ccc(NCc2cccc(Oc3ccccc3)c2)cc1 (single isomer, unassigned) [Example 25] | 631 |
| Cc1nc(-c2ccc(C(F)(F)F)cc2)sc1CNc1ccc([C@@H]2C[C@H]2C(=O)NCc2ccncc2)cc1 (single isomer, unassigned) [Example 38, Enantiomerically Enriched (trans)-2-{4-[({4-methyl-2-[4-(trifluoromethyl)phenyl]-1,3-thiazol-5-yl}methyl)amino]phenyl}-N-(4-pyridinylmethyl)cyclopropanecarboxamide TFA Salt] | 5.01 |
| Cc1nc(-c2ccc(C(F)(F)F)cc2)sc1CNc1ccc([C@@H]2C[C@H]2C(N)=O)cc1 (single isomer, unassigned) [Example 39, Enantiomerically Enriched (trans)-2-{4-[({4-methyl-2-[4-(trifluoromethyl)phenyl]-1,3-thiazol-5-yl}methyl)amino]phenyl}cyclopropanecarboxamide] | 10 |
| Cc1nc(-c2ccc(C(F)(F)F)cc2)sc1CNc1ccc([C@@H]2C[C@H]2C(=O)NO)cc1 (single isomer, unassigned) [Example 41, Enantiomerically Enriched (trans)-N-hydroxy-2-{4-[({4-methyl-2-[4-(trifluoromethyl)phenyl]-1,3-thiazol-5-yl}methyl)amino]phenyl}cyclopropanecarboxamide] | 6.31 |
| Cc1nc(-c2ccc(C(F)(F)F)cc2)sc1CNc1ccc([C@@H]2C[C@H]2C(=O)NC2CCC2)cc1 (single isomer, unassigned) [Example 42, Enantiomerically Enriched (trans)-N-cyclobutyl-2-{4-[({4-methyl-2-[4-(trifluoromethyl)phenyl]-1,3-thiazol-5-yl}methyl)amino]phenyl}cyclopropanecarboxamide] | 7.94 |
| O=C(O)C1CC1c1ccc(NCc2cccc(Oc3ccccc3)c2)cc1 (single isomer, unassigned; (+)) [Example 26, (+)-(Trans)-2-{4-[(3-phenoxybenzyl)amino]phenyl}cyclopropanecarboxylic Acid] | 3.98 |
| Cc1nc(-c2ccc(C(F)(F)F)cc2)sc1CNc1ccc(C2CC2C(=O)O)cc1 (single isomer, unassigned; (+)) [Example 27, (+)-(Trans)-2-{4-[({4-methyl-2-[4-(trifluoromethyl)phenyl]-1,3-thiazol-5-yl}methyl)amino]phenyl}cyclopropanecarboxylic Acid] | 3.98 |
| O=C(O)C1CC1c1ccc(NCc2cccc(Oc3ccc(Cl)c(Cl)c3)c2)cc1 (single isomer, unassigned; (+)) [Example 28a, (+)-(Trans)-2-{4-[({3-[(3,4-dichlorophenyl)oxy]phenyl}methyl)amino]phenyl}cyclopropanecarboxylic Acid Trifluoroacetate] | 3.16 |
| O=C(O)C1CC1c1ccc(NCc2cccc(Oc3ccccc3)c2)cc1Cl (single isomer, unassigned; (+)) [Example 30a, (+)-(Trans)-2-[2-chloro-4-({[3-(phenyloxy)phenyl]methyl}amino)phenyl]cyclopropanecarboxylic Acid] | 398 |
| O=C(O)C1CC1c1cc(F)c(NCc2cccc(Oc3ccccc3)c2)cc1F (single isomer, unassigned; (+)) [Example 31a, (+)-(trans)-2-[2,5-difluoro-4-({[3-(phenyloxy)phenyl]methyl}amino)phenyl]cyclopropanecarboxylic Acid] | 501 |
| CC(C)NC(=O)C1CC1c1ccc(NCc2cccc(Oc3ccccc3)c2)cc1 (single isomer, unassigned; (+)) [Example 44, (+)-(trans)-N-(1-methylethyl)-2-[4-({[3-(phenyloxy)phenyl]methyl}amino)phenyl]cyclopropanecarboxamide] | 10 |
| Cc1nc(-c2ccc(C(F)(F)F)cc2)sc1CNc1ccc(C2CC2C(=O)O)cc1 (single isomer, unassigned; (-)) [Example 29, (−)-(cis)-2-{4-[({4-methyl-2-[4-(trifluoromethyl)phenyl]-1,3-thiazol-5-yl}methyl)amino]phenyl}cyclopropanecarboxylic Acid] | 316 |
| O=C(O)[C@H]1C[C@@H]1c1ccc(NCc2cccc(Oc3cc(Cl)cc(Cl)c3)c2)cc1 [Example 32, (+)-(trans)-2-{4-[({3-[(3,5-dichlorophenyl)oxy]phenyl}methyl)amino]phenyl}cyclopropanecarboxylic Acid trifluoroacetate] | 5.01 |
